The source of these data is PubChem BioAssay (NCI).

Test systems include KM12 colon; RPMI-8226 leukemia; NCI-H23 lung; SK-MEL-28 melanoma; SW-620 colon; PC-3 prostate; OVCAR-3 ovarian; HCT-15 colon.
Holding throughout (experiment): NCI-60 cell line screen, 48 h

Molecules are shown by their SMILES.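 Dose response: 5 concentrations. Exposure: 48 h. Format: 96-well plates. Endpoint: linear interpolation; highest concentration if not reached. TGI: total growth inhibition.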 Where a SMILES comes first, the peptide text is derived from it. The star is where a group is joined. Cbz = O=C(OCc1ccccc1)*; NHNH2 = NN*

Regarding `CC(=O)C(=[N+]=[N-])C(=O)N(C)CCC#N`, the TGI in the test on KM12 colon, in the test with RPMI-8226 leukemia, in the test with NCI-H23 lung, in the test on SK-MEL-28 melanoma, in the test on SW-620 colon and with PC-3 prostate was more than 10 µM throughout. Besides, the TGI with OVCAR-3 ovarian and in the test with HCT-15 colon was more than 10 µM each time.
For the compound `COC(=O)/C=C\C(C#N)(C#N)N=Cc1sccc1C`, the TGI in the test on KM12 colon is 30.3 µM; in the test on RPMI-8226 leukemia, more than 24.6 µM; in the test with NCI-H23 lung it was 25.3 µM; in the test on SK-MEL-28 melanoma it was 20.1 µM; with SW-620 colon, 3.88 µM; in the test with PC-3 prostate it was 19.8 µM. Besides, the TGI with OVCAR-3 ovarian amounted to 16 µM; in the test with HCT-15 colon it was 4.57 µM.
With `COc1ccccc1NCc1cccc2c(=O)c3ccc(Cl)cc3oc12`, the TGI in the test with KM12 colon, in the test with RPMI-8226 leukemia, with NCI-H23 lung, in the test on SK-MEL-28 melanoma, in the test on SW-620 colon and in the test on PC-3 prostate was more than 100 µM each time. For the same compound, the TGI in the test with OVCAR-3 ovarian and in the test on HCT-15 colon was more than 100 µM each time.
As for `N#Cc1c(-c2ccc(Cl)cc2)c2c(N=Nc3c(O)ccc4ccccc34)[nH]nc2[nH]c1=O`, the TGI is 2.31 µM in the test with SW-620 colon, 2.05 µM in the test on PC-3 prostate, 0.0736 µM in the test on OVCAR-3 ovarian and 2.09 µM in the test on HCT-15 colon.
With `COc1c2c(cc3c1C1(O)Cc4ccc5c(c4C[N+]1(C)CC3)OCO5)OCO2` (centres undefined), the TGI in the test on KM12 colon, in the test on RPMI-8226 leukemia, with NCI-H23 lung, in the test on SK-MEL-28 melanoma, in the test with SW-620 colon and in the test with PC-3 prostate was more than 100 µM each time. The TGI with OVCAR-3 ovarian and in the test on HCT-15 colon was more than 100 µM throughout.
Take `NC(=O)c1c(NC=O)ncn1C1OCC(O)C(O)C1O` (centres undefined): the TGI in the test on KM12 colon, with RPMI-8226 leukemia, in the test on NCI-H23 lung, in the test on SW-620 colon, with PC-3 prostate and in the test with OVCAR-3 ovarian was more than 100 µM each time. In the test with HCT-15 colon, this compound registered a TGI of more than 100 µM.
Consider `CC1(C)CC(=O)c2c(nc3c(ccc4ccccc43)c2-c2ccc(NC(=O)CCCCC(=O)Nc3ccc(-c4c5c(nc6c4ccc4ccccc46)CC(C)(C)CC5=O)cc3)cc2)C1`, for which the TGI in the test with KM12 colon was 42.2 µM; in the test on RPMI-8226 leukemia it was 71.4 µM; in the test with SK-MEL-28 melanoma, more than 100 µM; in the test with SW-620 colon, more than 100 µM; in the test on PC-3 prostate it was more than 100 µM; in the test with OVCAR-3 ovarian it was 80.8 µM. Moreover, the TGI in the test on HCT-15 colon came to 50.9 µM.
With `COc1cc2ccc1OCc1cccc(n1)COc1ccc(cc1OC)C=NCCNCCNCCN=C2`, the TGI with KM12 colon, in the test on NCI-H23 lung, with SW-620 colon, in the test with PC-3 prostate, with OVCAR-3 ovarian and in the test on HCT-15 colon was more than 100 µM in each case.
As for `Cc1cc(O)c(/C=N/C(=S)Nc2ccccc2)c(=O)o1`, the TGI in the test with KM12 colon, in the test on RPMI-8226 leukemia, with NCI-H23 lung, in the test on SW-620 colon, with PC-3 prostate and in the test with OVCAR-3 ovarian was more than 100 µM in each case. Moreover, the TGI with HCT-15 colon was more than 100 µM.
Turning to `Cc1c(N2C(=O)/C(=C/c3ccc(N(CCC#N)CCC#N)cc3)N=C2c2ccccc2)c(=O)n(-c2ccccc2)n1C`, the TGI in the test with KM12 colon, with RPMI-8226 leukemia, with NCI-H23 lung, in the test on SK-MEL-28 melanoma, in the test on SW-620 colon and in the test on OVCAR-3 ovarian was more than 100 µM in each case. Further, the TGI in the test with HCT-15 colon was more than 100 µM.
Regarding `N#CCN(CC#N)C1CC=CCC1N(CC#N)CC#N` (centres undefined), the TGI in the test with KM12 colon, in the test with RPMI-8226 leukemia, in the test on NCI-H23 lung, in the test with SW-620 colon, with PC-3 prostate and with OVCAR-3 ovarian was more than 100 µM throughout. The compound also had a TGI in the test with HCT-15 colon of more than 100 µM.
For `COc1cccc2cc(C(C)=O)c(=O)oc12`, the TGI in the test on KM12 colon, in the test with RPMI-8226 leukemia, with NCI-H23 lung, with SK-MEL-28 melanoma, in the test with SW-620 colon and with PC-3 prostate was more than 100 µM in each case. For the same compound, in the test with OVCAR-3 ovarian, the TGI is more than 100 µM.
Regarding `O=C(Nc1cccc2ccccc12)c1ccccc1`, the TGI in the test with KM12 colon, in the test with NCI-H23 lung, with SK-MEL-28 melanoma, with SW-620 colon, in the test with PC-3 prostate and in the test with OVCAR-3 ovarian was more than 100 µM in each case. In addition, in the test with HCT-15 colon, the TGI is more than 100 µM.
Turning to `c1ccc2c(c1)ccn1ccc3c4ccccc4nc-3c21`, the TGI was found to be 1.92 µM in the test on KM12 colon; 0.799 µM with RPMI-8226 leukemia; 2.12 µM with NCI-H23 lung; 1.8 µM with SK-MEL-28 melanoma; 2.34 µM in the test on SW-620 colon; 1.67 µM in the test on PC-3 prostate. In addition, in the test on OVCAR-3 ovarian, the TGI was 2.92 µM.
`Nc1ccc(-c2nc3ccccc3s2)cc1C#Cc1ccccc1`: the TGI came to 37.9 µM in the test with KM12 colon; 47.2 µM in the test with RPMI-8226 leukemia; 52.6 µM in the test with NCI-H23 lung; 34.7 µM in the test on SW-620 colon; 45.4 µM in the test with PC-3 prostate; 33.1 µM in the test with OVCAR-3 ovarian. This compound yielded a TGI in the test with HCT-15 colon of 38.2 µM.
Regarding `CCOC(=O)CCC(NC(=O)OCc1ccccc1)C(=O)NC(CCC(=O)OCC)C(=O)NN` (centres undefined) (Cbz-Glu(OEt)-Glu(OEt)-NHNH2; configuration not given here), the TGI in the test on KM12 colon, with RPMI-8226 leukemia, in the test with SK-MEL-28 melanoma, with SW-620 colon, in the test on PC-3 prostate and with HCT-15 colon was more than 100 µM in each case.
As for `CCn1c2ccccc2c2ccc(C3C(C(=O)OC)=C(C)NC(C)=C3C(=O)OC)cc21`, the TGI in the test on KM12 colon is more than 100 µM; with RPMI-8226 leukemia it was 80.8 µM; in the test with NCI-H23 lung it was more than 100 µM; with SK-MEL-28 melanoma, more than 100 µM; in the test with SW-620 colon it was more than 100 µM; with OVCAR-3 ovarian, more than 100 µM. The compound also gave a TGI in the test with HCT-15 colon of more than 100 µM.
With `Cc1ccc2[nH]c3[nH]c(=S)[nH]c(=O)c3c2c1`, the TGI in the test with KM12 colon, with RPMI-8226 leukemia, in the test with NCI-H23 lung, in the test with SW-620 colon, with OVCAR-3 ovarian and in the test on HCT-15 colon was more than 100 µM each time.
